This passage reports mortality, activation and change in vivo results from patent publication US5008267A, “Pyrimidinedione compounds, method of producing the same and antiarrythmic agents containing the same” (Mitsui Toatsu Chemicals, Incorporated, priority 1988, dated 1991).

The structures appear in SMILES notation. Counter-ions that a name gives are not always drawn.

A short description of data set [1]: Toxicity test, mortality rate 24 hours after administration. The following applies: mouse, in vivo, po, 300 mg/kg (p.o.). The protocol:
Each of the compounds prepared in the above-mentioned examples was administered into a mouse (ddY strain, male). In each case, oral administration (p.o.) and intra peritoneal administration (i.p.) were separately carried out in a dose of 300 mg/kg and 250 mg/kg, respectively.
A mortality rate (number of specimens: one group=2 to 4 mice) of the mice 24 hours after the administration was calculated, and the results are set forth in Table 3.
Following the same procedure as in Toxicity Test 1, toxicity of the respective compounds prepared in the above examples in Table 5 was tested to calculate a mortality rate of mice.
Administration was made by oral administration (p.o.) in an amount of 300 mg/kg of each compound for one mouse.
Following the same procedure as in Toxicity Test 1, toxicity of the respective compounds prepared in the above examples in Table 7 was tested to calculate a mortality rate of mice.

Data set [2] concerns Purkinje fiber of the right ventricular free wall (myocardial action potential). The data set is described as follows: Influence on myocardial action potential duration time (APD75), isolated right ventricular free wall, microelectrode in Purkinje fiber. It is filed as cell-based, dog. The following applies: Canis lupus familiaris, 20 min, 20 minutes' incubation, (B-A)/A×100, read-out: APD75 (%).

For data set [3], the system named is ventricular muscle refractory period. The data set is described as follows: Influence on ventricular muscle refractory period (ERP). The format is in vivo, mongrel dog. The settings on record: Canis lupus familiaris, iv, i.v., (W-Y)/Y×100, read-out: ERP (%; extensibility of refractory period). A digest of the protocol:
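Anesthetized (pentobarbital 30 mg/kg i.v.) mongrel dog, compound given i.v. or intraduodenally; right ventricle paced via bipolar electrodes at 400 msec, 4 msec pulses, twice threshold, sinus pacemaker abolished with alcohol. Refractory period taken as shortest inter-train interval (10 msec steps) losing response; ERP (%) = (after − before)/before × 100.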

Regarding `CC(=O)OCCN(CCCc1ccc([N+](=O)[O-])cc1)CCNc1cc(=O)n(C)c(=O)n1C` [Compound 167, 1,3-dimethyl-6-{2-[N-(2-acetoxyethyl)-3-(4-nitrophenyl)propylamino]ethylamino}-2,4(1H,3H)-pyrimidinedione oxalate], in data set [1], the mortality at 24 h amounted to 0%. Besides, the activation at 1 µg/mL in data set [2] (1.0 μg/ml) came out at 16%. Moreover, the activation at 3 µg/mL in data set [2] (3.0 μg/ml) was 21%. Further, in data set [2] (10.0 μg/ml), the activation at 10 µg/mL was determined as 26%. For the same molecule, the change in vivo at 0.1 mg/kg in data set [3] (0.1 mg/kg) was determined as 8%. In addition, in data set [3] (0.3 mg/kg), the change in vivo at 0.3 mg/kg worked out at 8%. The change in vivo at 1 mg/kg in data set [3] (1.0 mg/kg) stood at 15%. Also, the change in vivo at 3 mg/kg in data set [3] (3.0 mg/kg) is 15%.
